Measured values taken from ChEMBL document CHEMBL3407465, “Interaction of human organic anion transporter polypeptides 1B1 and 1B3 with antineoplastic compounds” (Eur J Med Chem, 2015).

How the values were obtained:
[1] = molecular target: T1, Solute carrier organic anion transporter family member 1B1 (Homo sapiens, UniProt Q9Y6L6); test: Inhibition of human OATP1B1-mediated [3H]estrone 3-sulfate at 100 uM after 5 mins relative to control; format: ADME
T1 sequence (Q9Y6L6 whole entry): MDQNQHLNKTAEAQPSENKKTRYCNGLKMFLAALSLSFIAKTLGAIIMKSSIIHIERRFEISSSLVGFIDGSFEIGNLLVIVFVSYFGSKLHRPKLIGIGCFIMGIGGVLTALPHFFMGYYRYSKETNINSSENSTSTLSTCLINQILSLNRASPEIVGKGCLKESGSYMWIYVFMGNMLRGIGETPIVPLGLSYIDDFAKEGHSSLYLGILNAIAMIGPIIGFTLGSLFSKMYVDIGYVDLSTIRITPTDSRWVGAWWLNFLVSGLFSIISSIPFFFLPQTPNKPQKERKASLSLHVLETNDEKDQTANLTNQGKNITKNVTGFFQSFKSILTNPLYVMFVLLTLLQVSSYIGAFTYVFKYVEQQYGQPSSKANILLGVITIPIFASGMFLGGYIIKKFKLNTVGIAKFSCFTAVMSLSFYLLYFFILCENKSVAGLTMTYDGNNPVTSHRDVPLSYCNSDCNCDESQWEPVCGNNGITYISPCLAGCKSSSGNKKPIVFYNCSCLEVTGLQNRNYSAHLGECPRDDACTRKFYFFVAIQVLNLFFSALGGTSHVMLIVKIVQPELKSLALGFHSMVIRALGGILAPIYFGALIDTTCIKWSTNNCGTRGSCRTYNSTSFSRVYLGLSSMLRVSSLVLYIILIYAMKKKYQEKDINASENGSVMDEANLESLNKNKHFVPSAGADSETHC

[2] = molecular target: T2, Solute carrier organic anion transporter family member 1B3 (Homo sapiens, UniProt Q9NPD5); test: Inhibition of human OATP1B3-mediated [3H]CCK-8 at 100 uM after 5 mins relative to control; format: ADME
T2 sequence (Q9NPD5 whole entry): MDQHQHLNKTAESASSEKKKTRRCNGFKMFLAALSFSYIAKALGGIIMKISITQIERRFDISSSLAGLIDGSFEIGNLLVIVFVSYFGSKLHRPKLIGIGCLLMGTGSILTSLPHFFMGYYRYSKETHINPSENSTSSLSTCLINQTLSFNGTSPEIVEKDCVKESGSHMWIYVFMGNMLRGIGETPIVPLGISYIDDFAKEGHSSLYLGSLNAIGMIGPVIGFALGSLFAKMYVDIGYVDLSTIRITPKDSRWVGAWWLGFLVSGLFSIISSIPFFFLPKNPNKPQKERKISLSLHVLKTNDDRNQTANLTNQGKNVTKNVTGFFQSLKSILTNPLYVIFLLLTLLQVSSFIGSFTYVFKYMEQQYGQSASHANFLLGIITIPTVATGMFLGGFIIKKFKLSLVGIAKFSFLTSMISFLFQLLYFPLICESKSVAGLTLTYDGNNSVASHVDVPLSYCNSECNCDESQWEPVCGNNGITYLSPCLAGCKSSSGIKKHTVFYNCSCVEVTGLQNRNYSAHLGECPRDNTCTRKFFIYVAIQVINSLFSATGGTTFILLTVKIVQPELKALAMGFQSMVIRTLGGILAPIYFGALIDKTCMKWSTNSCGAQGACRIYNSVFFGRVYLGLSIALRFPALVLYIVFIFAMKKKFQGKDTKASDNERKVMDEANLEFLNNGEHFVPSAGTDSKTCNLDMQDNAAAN

[3] = molecular target: T2, Solute carrier organic anion transporter family member 1B3; test: Inhibition of human OATP1B3-mediated [3H]CCK-8 after 5 mins by Dixon plot method; format: ADME
[4] = molecular target: T1, Solute carrier organic anion transporter family member 1B1; test: Stimulation of human OATP1B1-mediated [3H]estrone 3-sulfate at 100 uM after 5 mins relative to control; format: ADME
[5] = molecular target: T2, Solute carrier organic anion transporter family member 1B3; test: Stimulation of human OATP1B3-mediated [3H]CCK-8 at 100 uM after 5 mins relative to control; format: ADME
OATP1B3 = molecular target: T3, OATP1B3 (Homo sapiens, UniProt Q9NPD5); test: Inhibition of OATP1B3 (unknown origin)-mediated sodium fluorescein expressed in CHO cells at 10 uM; format: ADME, cell-based; conditions: CHO cells expressing OATP1B3, probe sodium fluorescein
T3 sequence (Q9NPD5 whole entry): T2 sequence (Q9NPD5 whole entry)

[6] = molecular target: T1, Solute carrier organic anion transporter family member 1B1; test: Inhibition of human OATP1B1-mediated [3H]estrone 3-sulfate at after 5 mins by Dixon plot method; format: ADME

C[C@]12C=CC(=O)C=C1CC[C@@H]1[C@@H]2C(=O)C[C@@]2(C)[C@H]1CC[C@]2(O)C(=O)CO [PREDNISONE]
inhibition (INH) [1]: 9.8%
inhibition (INH) [2]: 12.5%

O=C1c2c(O)ccc(O)c2C(=O)c2c(NCCNCCO)ccc(NCCNCCO)c21 [MITOXANTRONE]
inhibition (INH) [1]: 18.9%
inhibition (INH) [2]: 84.4%
IC50 [3]: 3.39 µM
Ki [3]: 3.1 µM

CCc1c2c(nc3ccc(OC(=O)N4CCC(N5CCCCC5)CC4)cc13)-c1cc3c(c(=O)n1C2)COC(=O)[C@]3(O)CC [IRINOTECAN]
inhibition (INH) [2]: 34.3%
Activity [4]: 93.3%

Nc1ccn([C@@H]2O[C@H](CO)[C@@H](O)[C@@H]2O)c(=O)n1 [CYTARABINE]
Activity [5]: 17.7%

Nc1nc(F)nc2c1ncn2[C@@H]1O[C@H](CO)[C@@H](O)[C@@H]1O [FLUDARABINE]
Activity [5]: 12%

O=C(O)CCCc1ccc(N(CCCl)CCCl)cc1 [CHLORAMBUCIL]
inhibition (INH) [2]: 66%
Activity [4]: 18.8%
IC50 [3]: 80.7 µM
Ki [3]: 37.4 µM

S=P(N1CC1)(N1CC1)N1CC1 [THIOTEPA]
Activity [4]: 11.9%

CN(Cc1cnc2nc(N)nc(N)c2n1)c1ccc(C(=O)N[C@@H](CCC(=O)O)C(=O)O)cc1 [METHOTREXATE]
Activity [5]: 12%

Nc1ccn([C@@H]2O[C@H](CO)[C@@H](O)C2(F)F)c(=O)n1 [GEMCITABINE]
Activity [5]: 11.1%

COc1cccc2c1C(=O)c1c(O)c3c(c(O)c1C2=O)C[C@@](O)(C(=O)CO)C[C@@H]3O[C@H]1C[C@H](N)[C@H](O)[C@H](C)O1 [DOXORUBICIN]
inhibition (INH) [1]: 12%
inhibition (INH) [2]: 53.6%

Cn1c(CCCC(=O)O)nc2cc(N(CCCl)CCCl)ccc21 [BENDAMUSTINE]
inhibition (INH) [2]: 48.8%

CC(=O)O[C@H]1C(=O)[C@@]2(C)[C@H]([C@H](OC(=O)c3ccccc3)[C@]3(O)C[C@H](OC(=O)[C@H](O)[C@@H](NC(=O)c4ccccc4)c4ccccc4)C(C)=C1C3(C)C)[C@]1(OC(C)=O)CO[C@@H]1C[C@@H]2O [PACLITAXEL]
inhibition (INH) [2]: 94.4%
IC50 [3]: 0.26 µM
Ki [3]: 1.8 µM
inhibition at 10 µM (OATP1B3): 52.9%

CC[C@]1(O)C[C@H]2CN(CCc3c([nH]c4ccccc34)[C@@](C(=O)OC)(c3cc4c(cc3OC)N(C=O)[C@H]3[C@@](O)(C(=O)OC)[C@H](OC(C)=O)[C@]5(CC)C=CCN6CC[C@]43[C@@H]65)C2)C1 [VINCRISTINE]
inhibition (INH) [1]: 28.1%
inhibition (INH) [2]: 65.1%
IC50 [3]: 36.8 µM
Ki [3]: 17.6 µM

O=P1(N(CCCl)CCCl)NCCCO1 (centres undefined) [CYCLOPHOSPHAMIDE ANHYDROUS]
Activity [4]: 5.6%
Activity [5]: 8.7%

Nc1nc(Cl)nc2c1ncn2[C@H]1C[C@H](O)[C@@H](CO)O1 [CLADRIBINE]
Activity [4]: 15.9%
Activity [5]: 10%

O=P1(NCCCl)OCCCN1CCCl (centres undefined) [IFOSFAMIDE]
Activity [4]: 7.4%

CC[C@]1(O)C[C@@H]2CN(CCc3c([nH]c4ccccc34)[C@@](C(=O)OC)(c3cc4c(cc3OC)N(C)[C@H]3[C@@](O)(C(=O)OC)[C@H](OC(C)=O)[C@]5(CC)C=CCN6CC[C@]43[C@@H]65)C2)C1 [VINBLASTINE]
inhibition (INH) [1]: 64.1%
inhibition (INH) [2]: 81.5%
IC50 [3]: 43.5 µM
Ki [3]: 18.6 µM
IC50 [6]: 46.8 µM
Ki [6]: 10.2 µM
